Experimental data from patent US7531162B2, “Transcobalamin receptor binding conjugates useful for treating abnormal cellular proliferation” (Mayo Foundation for Medical Education and Research, priority 2000, dated 2009).

Experiments:
[1] = Deprez-Decampaneere et al. 1978; cited from earlier work
[2] = pH of 1000 μg/10 mL solutions in normal saline; format: physicochemical; details: 1000 μg in 10 mL normal saline, room temperature, no buffers
Description: (§1) Under dim light, 1000 μg of the non-labeled methyl-, adenosyl-, and cyanocobalamin-b-(4-aminobutyl)amide-DTPA, as well as 1000 μg of cyanocobalamin and DTPA (Sigma, St. Louis, Mo. 63178), were separately dissolved in 10 mL of normal saline at room temperature. Each of the five 1000 μg/10 mL samples was stored in sealed, aluminum-wrapped 10 mL vials to prevent exposure to light. No buffers were added to the solutions. The pH of the solutions, measured by a Beckman 40 pH meter (Beckman Instruments, Fullerton, Calif.): Cyanocobalamin=5.75, DTPA=3.78; cyano, methyl and adenosylcobalamin-DTPA analogues were 5.75, 6.10, and 6.19, respectively.

[3] = test system: transcobalamin proteins; experiment: modified Unsaturated vitamin B12 Binding Capacity (UBBC) assay with patient serum; parameters: species or system human; details: non-labeled solution (1000 μg/10 mL saline, 1 μL) preincubated with serum of five patients, then Co-57-cyanocobalamin
Description: Louis, Mo. 63178), were separately dissolved in 10 mL of normal saline at room temperature. […] No buffers were added to the solutions. The pH of the solutions, measured by a Beckman 40 pH meter (Beckman Instruments, Fullerton, Calif.): […] To assess in vitro binding to Intrinsic Factor (IF) and Transcobalamins (TC), the intrinsic factor blocking antibody (IFBA) and Unsaturated vitamin B12 Binding Capacity (UBBC) assays were performed with serum randomly obtained from five patients being evaluated for pernicious anemia at the Mayo Clinic. The IFBA and UBBC assays were first performed for clinical purposes as previously described by V. F. Fairbanks et al., Mayo Clin. Proc., 58, 203 (1983); Intrinsic Factor Blocking Antibody (^57Co) Radioassay-Package insert, Diagnostic Products Corp.; D. Grossowicz et al., Proc. Exp. Biol., 109, 604 (1962) and C. Gottlieb et al., Blood, 25, 6 (1965). Next, the serum from the same five patients underwent modified IFBA and UBBC assays. Specifically, 1 μL of the five previously described solutions was separately incubated with purified IF or serum, to potentially saturate all IF and TC-binding sites. […] Louis, Mo. 63134) solution was added and the usual IFBA and UBBC protocols were then followed. All supernatant activity was counted for four minutes on a gamma counter (Micromedix 10/20, Huntsville, Ala. 35805). […] Comparison of cyanocobalamin-DTPA to cyanocobalamin was 66.4% (Transcobalamin II receptor imaging via radiolabeled diethylene-triaminepentaacetate cobalamin analogs, J. Nucl. Med., 38, 717-723 (1997); also described in U.S. Pat. […] A. Collins, […], Tumor Imaging Indium-111-labeled DTPA-adenosylcobalamin, Mayo Clinic Proceedings, 1999; 74; 687-691; Biodistribution of Radiolabeled Adenosylcobalamin in Humans, Review of 30 patents submitted to Mayo Clinic Proceedings). This should improve tumor-to-background ratio, which can be evaluated in murine tumor models. Attachment of either the adenosyl and methyl group as the beta ligand should improve the biological activity as it did with the cyanocobalamin mono-DTPA compound (Transcobalamin II receptor imaging via radiolabeled diethylene-triaminepentaacetate cobalamin analogs, J. Nucl. Med., 38, 717-723 (1997); also described in U.S. Pat.

[4] = test system: Intrinsic Factor (IF); experiment: modified intrinsic factor blocking antibody (IFBA) assay, competition with Co-57-cyanocobalamin; format: binding; details: for binding to IF in the IFBA assay (in words): competition with Co-57 cyanocobalamin, compared with negative reference; for averaged percent binding to IF: non-labeled solution (1000 μg/10 mL saline, 1 μL) preincubated with purified IF, then Co-57-cyanocobalamin, average over five patients' runs, estimated from counts vs Clinical run
Description: as §1
To assess in vitro binding to Intrinsic Factor (IF) and Transcobalamins (TC), the intrinsic factor blocking antibody (IFBA) and Unsaturated vitamin B12 Binding Capacity (UBBC) assays were performed with serum randomly obtained from five patients being evaluated for pernicious anemia at the Mayo Clinic. The IFBA and UBBC assays were first performed for clinical purposes as previously described by V. F. Fairbanks et al., Mayo Clin. Proc., 58, 203 (1983); Intrinsic Factor Blocking Antibody (^57Co) Radioassay-Package insert, Diagnostic Products Corp.; D. Grossowicz et al., Proc. Exp. Biol., 109, 604 (1962) and C. Gottlieb et al., Blood, 25, 6 (1965).
Next, the serum from the same five patients underwent modified IFBA and UBBC assays. Specifically, 1 μL of the five previously described solutions was separately incubated with purified IF or serum, to potentially saturate all IF and TC-binding sites.
After incubation for 20 minutes at room temperature and for another 20 minutes at 4° C., 500 μl of the stock (1000 μg/l) Cobalt-57-cyanocobalamin (Mallinckrodt Medical, Inc., St. Louis, Mo. 63134) solution was added and the usual IFBA and UBBC protocols were then followed. All supernatant activity was counted for four minutes on a gamma counter (Micromedix 10/20, Huntsville, Ala. 35805).
By using the counts of the Clinical run divided into the counts of the five solutions, the efficacy of binding to intrinsic factor can be estimated. The averaged percent binding of the five solutions to IF was: cyanocobalamin=92.5%; methyl-cobalamin-b-(4-aminobutyl)-amide-DTPA=63.2%; cyanocobalamin-b-(4-aminobutyl)-amide-DTPA=52.9%; adenosylcobalamin-b-(4-aminobutyl)-amide-DTPA=41.0% and 0.8% for DTPA.

[5] = test system: transcobalamin proteins; details: relative to cyanocobalamin; J. Nucl. Med. 38, 717-723 (1997), U.S. Pat. No. 5,739,313; cited from earlier work

Row | Compound | hydrolysis in vivo to regenerate daunorubicin [1] | pH of the solution [2] | averaged percent binding to the transcobalamin proteins [3] [%] | binding to IF in the IFBA assay (in words) [4] | averaged percent binding to IF [4] [%] | in vitro UBBC comparison to cyanocobalamin [5] [%]
1 | COc1cccc2c1C(=O)c1c(O)c3c(c(O)c1C2=O)CC(O)(C(C)=O)CC3OC1CC(NC(=O)C(N)CC(C)C)C(O)C(C)O1 (single isomer, unassigned) [D isomer] | not | – | – | – | – | –
2 | O=C(O)CN(CCN(CC(=O)O)CC(=O)O)CCN(CC(=O)O)CC(=O)O [DTPA, diethylenetriaminepentaacetic acid] | – | 3.78 | 3.6 | does not significantly bind to IF | 0.8 | –
3 | COc1cccc2c1C(=O)c1c(O)c3c(c(O)c1C2=O)C[C@@](O)(C(C)=O)C[C@@H]3O[C@H]1C[C@H](NC(=O)[C@@H](N)CC(C)C)C(O)[C@H](C)O1 (stereo partly drawn) [N-(L-leucyl) daunorubicin] | hydrolyzed in vivo to regenerate daunorubicin | – | – | – | – | –
4 | Adenosylcobalamin-b-(4-aminobutyl)amide DTPA | – | 6.19 | 90.4 | – | 41.0 | –
5 | Cyanocobalamin-b-(4-aminobutyl)amide DTPA | – | 5.75 | 66.4 | – | 52.9 | 66.4
6 | Methylcobalamin-b-(4-aminobutyl)amide DTPA | – | 6.10 | 94.0 | – | 63.2 | –
7 | cyanocobalamin | – | 5.75 | 100 | competitively inhibit Co-57 cyanocobalamin from binding to intrinsic factor | 92.5 | –
